In general, pKi refers to −log10 of the Ki, conventionally taken in molar units. Low values mean a large Ki, high ones a small Ki.

Structures are written as SMILES. pKi: −log10 of the molar value. Structures can show the parent of a compound that is named as a salt.

For this experiment, the target named is T1, hBK1 receptor (Homo sapiens, UniProt P46663).
T1 construct: expressed in transfected cells; host or cells: CHO cells (membrane homogenate)
T1 sequence (P46663 1-353): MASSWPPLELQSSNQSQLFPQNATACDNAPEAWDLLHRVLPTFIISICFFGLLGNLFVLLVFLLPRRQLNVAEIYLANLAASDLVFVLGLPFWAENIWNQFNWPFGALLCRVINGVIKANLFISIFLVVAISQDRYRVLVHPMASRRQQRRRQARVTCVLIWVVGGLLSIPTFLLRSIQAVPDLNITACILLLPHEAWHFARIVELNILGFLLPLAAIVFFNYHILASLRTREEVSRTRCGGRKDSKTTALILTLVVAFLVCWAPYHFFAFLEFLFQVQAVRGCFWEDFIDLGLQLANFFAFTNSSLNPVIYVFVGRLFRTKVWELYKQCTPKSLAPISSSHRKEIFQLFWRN
Briefly: hBK1 receptor binding. The conditions noted are these: membranes of CHO cells expressing the hBK1 receptor; radioligand 0.5 to 1.0 nM kallidin (DesArg10, Leu9), [3,4-prolyl-3,43H(N)]; 60 minutes, room temperature. As for the experimental part: CHO cells expressing the hBK1 receptor are cultivated in Dulbecco's modified medium. The medium from confluent cultures is removed and the cells are washed with PBS buffer, scraped off and isolated by centrifugation. The cells are then homogenized in suspension and the homogenate is centrifuged and resuspended. The protein content is determined and the membrane preparation obtained in this manner is then frozen at −80° C.
After thawing, 200 μl of the homogenate (50 to 100 μg of proteins/assay) are incubated at room temperature with 0.5 to 1.0 nM of kallidin (DesArg10, Leu9), [3,4-prolyl-3,43H(N)] and increasing concentrations of the test substance in a total volume of 250 μl for 60 minutes. The incubation is terminated by rapid filtration through GF/B glass fibre filters which had been pretreated with polyethyleneimine (0.3%). The protein-bound radioactivity is measured in a TopCount NXT. Non-specific binding is defined as radioactivity bound in the presence of 1.0 μM of […]. The concentration/binding curve is analysed using a computer-assisted nonlinear curve fitting. The Ki which corresponds to the test substance is determined using the data obtained in this manner.
On to `CC(C)N(CCCC(=O)N(C)CCc1ccc(C2=NCCN2)cc1)S(=O)(=O)c1cccc(Cl)c1Cl` [A, 4-[(2,3-dichlorobenzenesulphonyl)isopropylamino]-N-{2-[4-(4,5-dihydro-1H-imidazol-2-yl)phenyl]ethyl}-N-methylbutyramide], for which the negative-log Ki (pKi) was 7.21.
The same measure for `Cc1cc(S(=O)(=O)N2CCCCC2CCC(=O)N(C)CCc2ccc(C3=NCCN3)cc2)c(C)cc1Cl` (centres unmarked) [B, 3-[1-(4-chloro-2,5-dimethylbenzenesulphonyl)piperidin-2-yl]-N-{2-[4-(4,5-dihydro-1H-imidazol-2-yl)phenyl]ethyl}-N-methylpropionamide hydrochloride]: 7.59; for `CN(CCc1ccc(C2=NCCN2)cc1)C(=O)C1CCCN(S(=O)(=O)c2cccc(Cl)c2Cl)C1` (centres unmarked) [C, 1-[(2,3-dichlorobenzenesulphonyl)piperidin-3-yl]-N-({2-[4-(4,5-dihydro-1H-imidazol-2-yl)phenyl]ethyl}methyl)carboxamide]: 6.02.
As for `Cc1cc(S(=O)(=O)N(C)CCNC(=O)CCc2ccc(C3=NCCN3)cc2)c(C)cc1Cl` [D, N-{2-[(4-chloro-2,5-dimethylbenzenesulphonyl)methylamino]ethyl}-3-[4-(4,5-dihydro-1H-imidazol-2-yl)phenyl]propionamide], the figure is 6.77.
As for `CN(CCN1CCN(CCc2ccc(C3=NCCN3)cc2)C1=O)S(=O)(=O)c1cccc(Cl)c1Cl` [E, 2,3-dichloro-N-[2-(3-{2-[4-(4,5-dihydro-1H-imidazol-2-yl)phenyl]ethyl}-2-oxoimidazolidin-1-yl)ethyl]-N-methylbenzenesulphonamide hydrochloride], the figure is 5.82.

(Values after US7291642B2, “Bradykinin-B1 antagonists, process for their preparation and their use as medicaments” (Boehringer Ingelheim International GmbH, priority 2004, dated 2007).)
